Test results published in patent US5767142A, “Trisbenzimidazoles useful as topoisomerase I inhibitors” (Rutgers, The State University of New Jersey, priority 1996, dated 1998).
Entries after “also recorded” stand apart in the source; their conditions may differ. Read-outs that look alike come from different tables or passages of the source.

Tests used:
[1] = test system: human epidermoid carcinoma KB3-1 cell line; settings: previously reported; read-out: IC50 of Hoechst 33342 in KB 3-1 cells; cited from earlier work
[2] = test system: KBV-1 cells (multidrug-resistant variant of KB3-1, overexpress MDR1); experiment: MTT cytotoxicity assay, multidrug-resistant KBV-1; assay type: cell-based, human; settings: Homo sapiens, KB-V1, 96 h; 4 days continuous drug exposure; read-out: Cytotoxicity IC50, KBV-1
Protocol: (§1) The cytotoxicity was determined using the as MTT-microtiter plate tetrazolinium cytotoxicity assay (MTA) following the procedures of F. Denizot et al., J. Immunol. […] The cytotoxicity assay was performed using 96-well microtiter plates. Cells were grown in suspension at 37° C. in 5% CO2 and maintained by regular passage in RPMI medium supplemented with 10% heat inactivated fetal bovine serum, L-glutamine (2 mM), penicillin (100 U/ml), and streptomycin (0.1 mg/ml). For determination of IC50, cells were exposed continuously with varying concentrations of drug concentrations and MTT assays were performed at the end of the fourth day.
(§2) These cells were grown as monolayer cultures at in 5% CO2 and maintained by regular passage in Dulbecco's minimal essential medium supplemented with 10% heat inactivated fetal bovine serum. KBV-1 cells were similarly maintained except they were grown in the presence of 1 μg/ml vinblastine.

[3] = test system: human lymphoblast RPMI 8402 cells; experiment: MTT cytotoxicity assay, RPMI 8402; assay type: cell-based; settings: Homo sapiens, RPMI 8402, 96 h; 4 days continuous drug exposure; read-out: Cytotoxicity IC50, RPMI
Protocol: as §1

[4] = test system: KBV-1 cells (multidrug-resistant variant of KB3-1, overexpress MDR1); settings: cited from earlier work
[5] = target: T1, calf thymus topoisomerase I (Bos taurus, UniProt A0AAA9TV68); experiment: Topoisomerase I-mediated DNA cleavage assay (calf thymus topoisomerase I, plasmid YEpG); assay type: biochemical
T1 construct: plasmid YEpG DNA cleavage assay
T1 sequence (A0AAA9TV68 2-769): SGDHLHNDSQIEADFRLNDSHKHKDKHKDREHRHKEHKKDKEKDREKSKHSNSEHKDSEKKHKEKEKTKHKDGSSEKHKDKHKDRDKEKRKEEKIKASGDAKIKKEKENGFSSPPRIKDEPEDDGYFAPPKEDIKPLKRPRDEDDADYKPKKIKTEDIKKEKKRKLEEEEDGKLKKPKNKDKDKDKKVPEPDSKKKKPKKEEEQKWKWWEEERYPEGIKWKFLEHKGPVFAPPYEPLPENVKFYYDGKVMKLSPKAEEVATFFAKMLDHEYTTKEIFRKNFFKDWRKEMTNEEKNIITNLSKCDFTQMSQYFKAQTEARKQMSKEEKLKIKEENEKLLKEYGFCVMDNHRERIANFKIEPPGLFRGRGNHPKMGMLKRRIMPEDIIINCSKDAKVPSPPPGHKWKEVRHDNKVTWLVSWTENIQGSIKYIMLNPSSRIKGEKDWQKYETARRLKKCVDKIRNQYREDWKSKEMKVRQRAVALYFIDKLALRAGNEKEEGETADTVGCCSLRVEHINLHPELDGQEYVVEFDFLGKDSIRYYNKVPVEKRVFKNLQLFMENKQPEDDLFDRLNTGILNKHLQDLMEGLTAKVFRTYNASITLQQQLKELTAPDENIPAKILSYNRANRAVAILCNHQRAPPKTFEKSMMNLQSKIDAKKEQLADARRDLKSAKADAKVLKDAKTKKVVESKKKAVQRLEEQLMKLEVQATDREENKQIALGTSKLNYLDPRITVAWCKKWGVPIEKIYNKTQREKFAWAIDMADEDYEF
From the text: DNA topoisomerase I was purified from calf thymus gland as reported previously by B. D. Halligan et al., J. Biol. Chem., 260, 2475 (1985). Plasmid YEpG was also purified by the alkali lysis method followed by phenol deproteination and CsCl/ethidium isopycnic centrifugation as described by T. Mariatis et al., Molecular Cloning, A Laboratory Manual, Cold Spring Harbor Labs, NY (1982) at pages 149-185. The end-labeling of the plasmid was accomplished as previously described by L. F. Liu et al., J. Biol. Chem., 258, 15365 (1983). The cleavage assays were performed as previously reported by A. Y. Chen et al., Cancer Res., 53, 1332 (1993). Human topoisomerase was isolated as a recombinant fusion protein using a T7 expression system.
^b Topoisomerase I cleavage values are reported as REC, Relative
Effective Concentration, i.e. concentrations relative to Hoechst 33342,
whose value is arbitrarily assumed as 1, that are able to produce the sam
cleavage on the plasmid DNA in the presence of calf thymus topoisomerase
I. Cleavage is calculated from the intensity of the strongest Hoechst

topoisomerase I = settings: literature; cited from earlier work
[6] = test system: human epidermoid carcinoma KB3-1 cell line; experiment: MTT cytotoxicity assay, KB3-1; assay type: cell-based; settings: KB 3-1, 96 h, 4 days continuous drug exposure
Protocol: as §1, §2

[7] = test system: CPT-K5 cells (camptothecin-resistant variant of RPMI 8402); experiment: MTT cytotoxicity assay, camptothecin-resistant CPT-K5; assay type: cell-based, human
Protocol: as §1

[8] = cited from earlier work

CCOc1ccc(-c2nc3cc(-c4nc5cc(N6CCN(C)CC6)ccc5[nH]4)ccc3[nH]2)cc1 [Hoechst 33342, 2'-(4-ethoxyphenyl)-5-(4-methyl-1-piperazinyl)-2,5'-bi-1H-benzimidazole, reference compound]
IC50 [1]: ~0.009 µM
IC50 [2]: 1.2 µM
IC50 [3]: 0.03 µM
Difference of IC50 between KB 3-1 and KB V-1 cells (in words) ([4]; as reported by A. Y. Chen et al., Adv. Pharmacol., 245, 29B (1994)): differs by approximately two-orders of magnitude
less cytotoxic to KB V-1 cells than to KB 3-1 cells ([4]; previously reported, KB V-1 overexpress MDR1): approximately 130 fold
Efficacy against tumor cell lines which overexpress MDR1 (in words) ([4]; previously reported): not effective against tumor cell lines which overexpress MDR1
Topo I-mediated DNA cleavage (REC, Relative Effective Concentration) [5]: 1
Inhibition of topoisomerase I (in words) (topoisomerase I): is an inhibitor of topoisomerase I; also recorded: traps the reversible cleavable complex derived from DNA and topoisomerase I and produces a limited number of highly specific single-strand DNA breaks
IC50 [6]: 0.01 µM
Cytotoxicity against CPT-K5 cells (in words) [7]: effective against camptothecin-resistant CPT-K5 cells
Relative resistance (ratio of IC50 values of resistant versus drug sensitive cell line) ([7]; CPT-K5 versus RPMI 8402, 5760 min): approximately 30 fold
IC50 ([7]; Homo sapiens, CPT-K5, 96 h, 4 days continuous drug exposure, read-out: Cytotoxicity IC50, CPT-K5): 0.9 µM
Protonation at physiological pH (in words) [8]: extensively protonated at physiological pH
